What is called Ki is a dissociation constant, usually derived from enzyme kinetics or from competition with a known ligand. Read a low Ki as tighter binding. By IC50 is commonly meant the point on the concentration scale where inhibition reaches its midpoint. Low values mean inhibition by little substance, high ones a need for much substance.

Data on 32 compounds can be found in ChEMBL document CHEMBL1135953, “bis-Azaaromatic quaternary ammonium analogues: ligands for alpha4beta2* and alpha7* subtypes of neuronal nicotinic receptors” (Bioorg Med Chem Lett, 2002).

Assay [1] concerns the target Neuronal acetylcholine receptor subunit alpha-7 (Rattus norvegicus, UniProt Q05941). Kind of assay: Binding affinity nicotinic acetylcholine receptor alpha-7 was evaluated by its ability to inhibit [3H]methyllycaconitine ([3H]-MLA) binding to rat brain membranes. More on the design: species or system Membrane.
The target in assay [2] is Neuronal acetylcholine receptor; alpha4/beta2 (Rattus norvegicus, UniProt P09483+P12390). Kind of assay: Binding affinity for nicotinic acetylcholine receptor alpha4-beta2 was evaluated by its ability to inhibit [3H]NIC binding to rat brain membranes. On the set-up: species or system Membrane.
For a further assay, the species on record is Rattus norvegicus. Description: Compound was evaluated for inhibiting NIC-evoked [86Rb+] efflux from rat thalamic synaptosomes. The conditions noted are these: Brain. Type of assay: functional.

Sequence of Neuronal acetylcholine receptor; alpha4/beta2 (P09483 whole entry): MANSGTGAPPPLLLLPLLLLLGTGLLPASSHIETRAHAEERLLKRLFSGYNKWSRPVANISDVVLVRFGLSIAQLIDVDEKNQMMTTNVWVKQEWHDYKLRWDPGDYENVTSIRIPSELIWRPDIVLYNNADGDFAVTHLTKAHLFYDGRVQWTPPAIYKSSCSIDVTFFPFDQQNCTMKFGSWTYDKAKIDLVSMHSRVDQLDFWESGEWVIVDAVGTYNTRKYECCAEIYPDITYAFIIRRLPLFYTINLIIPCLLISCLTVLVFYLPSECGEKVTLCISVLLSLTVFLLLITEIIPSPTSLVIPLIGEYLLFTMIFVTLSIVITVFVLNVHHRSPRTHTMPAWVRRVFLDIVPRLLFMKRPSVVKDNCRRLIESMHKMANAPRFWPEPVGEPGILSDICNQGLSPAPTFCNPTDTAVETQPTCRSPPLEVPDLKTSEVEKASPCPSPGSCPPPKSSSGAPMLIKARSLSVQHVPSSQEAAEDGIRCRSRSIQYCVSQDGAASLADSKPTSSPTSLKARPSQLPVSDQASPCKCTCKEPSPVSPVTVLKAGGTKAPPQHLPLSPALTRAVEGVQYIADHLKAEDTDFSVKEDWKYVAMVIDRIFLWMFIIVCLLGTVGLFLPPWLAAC
Sequence of Neuronal acetylcholine receptor; alpha4/beta2 (P12390 whole entry): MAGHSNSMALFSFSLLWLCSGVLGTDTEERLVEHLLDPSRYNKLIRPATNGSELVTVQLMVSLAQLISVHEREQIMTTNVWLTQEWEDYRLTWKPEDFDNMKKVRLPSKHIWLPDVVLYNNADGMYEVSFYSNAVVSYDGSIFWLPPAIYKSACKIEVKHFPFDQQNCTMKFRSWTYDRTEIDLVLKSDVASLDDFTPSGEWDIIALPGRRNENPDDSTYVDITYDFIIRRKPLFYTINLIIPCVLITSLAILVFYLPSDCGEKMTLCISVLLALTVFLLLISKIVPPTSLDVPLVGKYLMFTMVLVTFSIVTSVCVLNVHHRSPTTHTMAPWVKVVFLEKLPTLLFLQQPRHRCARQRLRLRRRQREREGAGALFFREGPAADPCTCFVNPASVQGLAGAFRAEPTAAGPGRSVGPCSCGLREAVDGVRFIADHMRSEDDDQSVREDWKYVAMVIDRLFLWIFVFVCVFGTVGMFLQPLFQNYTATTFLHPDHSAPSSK
Sequence of Neuronal acetylcholine receptor subunit alpha-7 (Q05941 whole entry): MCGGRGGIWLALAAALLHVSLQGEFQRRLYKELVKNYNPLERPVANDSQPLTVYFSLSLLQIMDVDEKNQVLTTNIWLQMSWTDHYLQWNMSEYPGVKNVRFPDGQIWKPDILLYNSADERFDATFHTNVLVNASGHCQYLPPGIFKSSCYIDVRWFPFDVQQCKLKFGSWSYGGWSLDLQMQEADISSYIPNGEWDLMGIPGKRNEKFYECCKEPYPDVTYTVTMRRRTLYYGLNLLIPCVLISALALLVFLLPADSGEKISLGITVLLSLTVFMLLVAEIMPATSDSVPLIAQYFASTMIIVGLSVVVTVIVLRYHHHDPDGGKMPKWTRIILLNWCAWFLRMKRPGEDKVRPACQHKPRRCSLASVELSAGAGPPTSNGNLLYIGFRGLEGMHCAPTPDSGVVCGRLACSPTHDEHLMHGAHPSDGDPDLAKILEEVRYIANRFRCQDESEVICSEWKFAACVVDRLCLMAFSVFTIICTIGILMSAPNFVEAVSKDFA

Consider `c1cc[n+](CCCCC[n+]2ccccc2)cc1`, for which the inhibitory constant (Ki) in assay [1] and in assay [2] was > 100 µM throughout.

`c1ccc2c[n+](CCCCCCCC[n+]3ccc4ccccc4c3)ccc2c1`: the Ki turned out to be 11.7 µM in assay [1] and 65.5 µM in assay [2]. Turning to `c1cc[n+](CCCCCC[n+]2ccccc2)cc1`, in assay [1], the Ki is > 100 µM. Consider `c1ccc2c(c1)ccc[n+]2CCCCCCCCCCCC[n+]1cccc2ccccc21`, for which the Ki in assay [2] is > 100 µM.

Consider `CN1CCC[C@H]1c1ccc[n+](CCCCCC[n+]2cccc([C@@H]3CCCN3C)c2)c1`, for which the Ki in assay [1] is > 100 µM.

For `c1ccc2c[n+](CCCCCCCCC[n+]3ccc4ccccc4c3)ccc2c1`, the Ki in assay [1] amounted to 5.95 µM; in assay [2], 7.89 µM. Consider `c1ccc2c[n+](CCCCCCCCCCC[n+]3ccc4ccccc4c3)ccc2c1`, for which, in assay [1], affinity was put at a Ki of 5.46 µM. In the case of `c1ccc2c(c1)ccc[n+]2CCCCCCCCC[n+]1cccc2ccccc21`, the Ki in assay [1] was 3.58 µM; in assay [2] it was 22.5 µM. The matching figures for `c1cc[n+](CCCCCCCC[n+]2ccccc2)cc1`: > 100 µM and 34.3 µM.

For the compound `c1ccc2c(c1)ccc[n+]2CCCCCCCCCCC[n+]1cccc2ccccc21`, the Ki in assay [1] turned out to be 2.58 µM; in assay [2] it was 37.8 µM. `CN1CCC[C@H]1c1ccc[n+](CCCCCCCCCCC[n+]2cccc([C@@H]3CCCN3C)c2)c1`: the IC50 in the assay filed under Rattus norvegicus worked out at 5.22 µM. The Ki is > 100 µM in assay [1] and 0.43 µM in assay [2].

Turning to `CN1CCC[C@H]1c1ccc[n+](CCCCCCCC[n+]2cccc([C@@H]3CCCN3C)c2)c1`, the Ki in assay [1] was > 100 µM; in assay [2], 1.54 µM.

Regarding `c1ccc2c[n+](CCCCCCCCCC[n+]3ccc4ccccc4c3)ccc2c1`, the Ki in assay [1] is 7.25 µM; in assay [2] it was > 100 µM. In the case of `c1cc[n+](CCCCCCCCC[n+]2ccccc2)cc1`, the Ki in assay [1] is > 100 µM.

As to `c1cc[n+](CCCCCCCCCC[n+]2ccccc2)cc1`, in assay [1], the Ki was > 100 µM. Regarding `CN1CCC[C@H]1c1ccc[n+](CCCCCCCCCC[n+]2cccc([C@@H]3CCCN3C)c2)c1`, in the assay filed under Rattus norvegicus, the IC50 stood at 3.76 µM. Further, the Ki is > 100 µM in assay [1] and 0.33 µM in assay [2]. With `COc1cc2c3cc1Oc1cc(ccc1O)C[C@@H]1c4c(cc(OC)c(O)c4Oc4ccc(cc4)C[C@@H]3N(C)CC2)CC[N+]1(C)C`, the figures for the inhibition constant (Ki) in assay [1] and in assay [2] were 4.79 µM and 9.72 µM, respectively. In the case of `c1ccc2c(c1)ccc[n+]2CCCCCCCC[n+]1cccc2ccccc21`, the Ki in assay [1] is 2.39 µM; in assay [2], > 100 µM. With `CCCCCCCC[n+]1cccc([C@@H]2CCCN2C)c1`, the affinity in assay [1], expressed as Ki, was 23.6 µM. For `CN1CCC[C@H]1c1ccc[n+](CCCCCCCCC[n+]2cccc([C@@H]3CCCN3C)c2)c1`, the figures for the Ki in assay [1] and in assay [2] were > 100 µM and 5.03 µM, respectively. For `c1ccc2c(c1)ccc[n+]2CCCCCCCCCC[n+]1cccc2ccccc21` the same measures were 7.81 µM and > 100 µM. On to `CN1CCC[C@H]1c1ccc[n+](CCCCCCCCCCCC[n+]2cccc([C@@H]3CCCN3C)c2)c1`, for which the Ki in assay [1] was > 100 µM. Regarding `c1ccc2c(c1)ccc[n+]2CCCCCC[n+]1cccc2ccccc21`, the Ki in assay [2] worked out at 39.3 µM. In the case of `c1cc[n+](CCCCCCCCCCC[n+]2ccccc2)cc1`, the results for the Ki in assay [1] and in assay [2] were 57 µM and 14 µM, respectively. As to `Cc1ccc[n+](CCCCCCCCCCC[n+]2cccc(C)c2)c1`, the Ki in assay [1] was > 100 µM. Regarding `Cc1ccc[n+](CCCCCCCCC[n+]2cccc(C)c2)c1`, the Ki was > 100 µM in assay [1] and 79.9 µM in assay [2]. With `Cc1ccc[n+](CCCCCC[n+]2cccc(C)c2)c1`, the Ki in assay [1] and in assay [2] was > 100 µM in each case. Regarding `Cc1ccc[n+](CCCCCCCCCCCC[n+]2cccc(C)c2)c1`, the Ki is > 100 µM in assay [1] and 48.6 µM in assay [2]. For `Cc1ccc[n+](CCCCCCCC[n+]2cccc(C)c2)c1` the same measures were > 100 µM and > 100 µM. For `Cc1ccc[n+](CCCCCCCCCC[n+]2cccc(C)c2)c1` the same measures were > 100 µM and > 100 µM. Take `CCCCCCCCCC[n+]1cccc([C@@H]2CCCN2C)c1`: the Ki in assay [1] is > 100 µM; in assay [2] it was 0.064 µM. With `C[N+](C)(C)CCCCCC[N+](C)(C)C` [HEXAMETHONIUM CHLORIDE], the inhibition constant Ki in assay [1] is > 100 µM; in assay [2] it was 21.7 µM.
